Results: patent US20240374523A1, “STABILIZED APILIMOD COMPOSITIONS AND USES THEREOF” (Orphai Therapeutics Inc., priority 2021, published 2024)
Converted amounts (≈) assume the structure as drawn. “Also recorded” adds a separate entry of the source. Where a name gives a salt, the structure may show the parent alone. Read-outs that look alike come from different tables or passages of the source.

Key:
[1] = test system: synovial IL-12 and IL-23 expression; conditions: patients with rheumatoid arthritis, Phase II (Krauz et al. 2012); cited from earlier work
[2] = PXRD of residual solids after the IDR experiment; type: physicochemical; conditions: pellet surface after IDR experiment, compared with input API
Protocol: X-Ray Powder Diffraction (XRPD). […] Configuration on the incidental beam side: variable divergence slits (10 mm irradiated length), 0.04 rad Soller slits, fixed anti-scatter slit) (0.50°, and 10 mm beam mask. Configuration on the diffracted beam side: variable anti-scatter slit (10 mm observed length) and 0.02 rad Soller slit. Samples were mounted flat on zero-background Si wafers.
At the end of the IDR analysis, the pellet surface was analyzed by PXRD and compared to its corresponding input API for any physical changes.

[3] = Solubility of apilimod vs pH in 0.1N HCl and Britton-Robinson buffers; type: physicochemical; conditions: for solubility at 3 days / solubility thermodynamic at 3 days: thermodynamic from solid; for solubility thermodynamic at 3 days: Britton-Robinson buffer
Protocol: Next, the solubility of apilimod at various pH was evaluated. The samples were prepared at room temperature in 0.1N HCl (pH 1) and Britton-Robinson buffers (BRB) pH 2, 3, 4, 5, 6, 7 and 8. After 3 days, each sample was centrifuged for 30 min, the solution was filtered and the concentration of apilimod determined by HPLC analysis. HPLC analysis was carried out using an XTerra MS C18 (5 μm 4.6×150 mm) column and 18-minute gradient HPLC conditions.

[4] = test system: IL-12/IL-23 synthesis; conditions: oral administration, patients with psoriasis, open-label (Wada et al. 2012); cited from earlier work
[5] = test system: active Crohn's disease; conditions: active Crohn's disease (Sands et al. 2010); cited from earlier work
[6] = cited from earlier work
[7] = Kinetic solubility in FaSSGF (pH 1.6); conditions: after test in FaSSGF
Protocol: Kinetic solubility studies were carried out on the various apilimod salts provided in Table 1 in Fasted State Simulated Gastric Fluid (FaSSGF) at pH 1.6 at ambient temperature. FaSSGF is a dissolution medium that has the average acidic pH and similar osmolarity of fasted gastric fluid. FaSSGF that can help reveal how an oral drug is likely to behave in the stomach after drinking a glass of water. The stability, solubility and dissolution data generated from testing in FaSSGF can help identify critical factors influencing a drug's absorption in the fasted state, and in turn facilitate the selection of the appropriate solid state and formulation approach for a drug.

[8] = Intrinsic dissolution rate (stationary disk, 0.01N HCl); type: physicochemical; parameters: Intrinsic Dissolution Rate free base equivalent: unit not given here; conditions: 37° C.; for Intrinsic Dissolution Rate free base equivalent: disk pressed at 3900 psi, 700 mL 0.01N HCl, paddle 50 rpm, UV 333 nm
Protocol: Stationary disks for apilimod free base and the nine apilimod salts were prepared. Intrinsic dissolution rate of the free base and the nine salts were prepared from preparations at 3900 psi. Each disk was placed into a flat bottom vessel containing 700 mL of 0.01N HCl medium equipped with a Distek Dissolution bath, and a Distek cirvulator/heater set to 37°° C. with a paddle speed of 50 rpm. The Opt-Diss 405 system single analytical wavelength settings was 333 nm with a background wavelength setting of 400 nm and reading were taken every 1 minute to 35 minutes. […] The kinetic solubility of the salt behavior is unpredictable and the dramatic difference between the non-mesylate salts was an unexpected discovery in the behavior of the salts.

[9] = aqueous solubility of the disalt; cited from earlier work
[10] = Kinetic solubility in FaSSIF (pH 6.5); type: physicochemical; conditions: FaSSIF pH 6.5, 1 hour
Protocol: Additional kinetic solubility studies were carried out in Fasted State Simulated Intestinal Fluid (FaSSIF) at pH6.5 at ambient temperature and the results are shown in FIG. 3. FaSSIF helps reveal how an oral drug is likely to dissolve and potentially be absorbed in fluid from the upper intestine after drinking a glass of water. […] After 1 hour of stirring, all samples appeared to be hazy suspensions, but after 4 and 24 hours their appearance changed to a milky white suspension by PXRD analysis.

[11] = pKa of the counter-acid, not of the apilimod salt

Cc1cccc(/C=N/Nc2cc(N3CCOCC3)nc(OCCc3ccccn3)n2)c1 [Apilimod]
effect on synovial IL-12 and IL-23 expression [1]: failed to alter synovial IL-12 and IL-23 expression | Residual Solids By XRPD ([2]; listed as Free base): Matches Input | Residual Solids By XRPD ([2]; listed as free base): match the XRPD pattern of the initial input material | solubility at 3 days ([3]; 0.1N HCl, pH 1, simulated gastric fluid, pH of approximately 1, read-out: solubility): > 10000 µg/mL | PXRD of Residuals Day 3 ([3]; BRB pH 2): Phosphate salt | Conc Day 3 ([3]; BRB pH 2, medium pH 1.99, prep. 11 mg/mL, room temperature, Day 3 pH 2.75): 137 µg/mL | PXRD of Residuals Day 3 ([3]; BRB pH 3): Phosphate salt | PXRD of Residuals Day 3 ([3]; BRB pH 4): Free base, hydrate Group B | PXRD of Residuals Day 3 ([3]; BRB pH 5): Free base, hydrate Group B | PXRD of Residuals Day 3 ([3]; BRB pH 6): Free base, hydrate Group B | PXRD of Residuals Day 3 ([3]; BRB pH 7): Free base, hydrate Group B | PXRD of Residuals Day 3 ([3]; BRB pH 8): Free base, hydrate Group B | solubility thermodynamic at 3 days ([3]; aqueous buffer, BRB pH 2, medium pH 1.99, prep. 11 mg/mL, room temperature, Day 3 pH 2.75, read-out: Conc Day 3): 137 µg/mL (≈ 327 µM) | solubility thermodynamic at 3 days ([3]; aqueous buffer, BRB pH 3, medium pH 2.88, prep. 2.8 mg/mL, room temperature, Day 3 pH 3.61, read-out: Conc Day 3): 17.3 µg/mL (≈ 41.3 µM) | solubility thermodynamic at 3 days ([3]; aqueous buffer, BRB pH 4, medium pH 4.11, prep. 2.8 mg/mL, room temperature, Day 3 pH 4.22, read-out: Conc Day 3): 2.3 µg/mL (≈ 5.5 µM) | solubility thermodynamic at 3 days ([3]; aqueous buffer, BRB pH 5, medium pH 5.04, prep. 2.8 mg/mL, room temperature, Day 3 pH 5.08, read-out: Conc Day 3): 0.2 µg/mL (≈ 0.478 µM) | solubility thermodynamic at 3 days ([3]; aqueous buffer, BRB pH 6, medium pH 6.15, prep. 2.7 mg/mL, room temperature, Day 3 pH 6.18, read-out: Conc Day 3): < 0.1 µg/mL | solubility thermodynamic at 3 days ([3]; aqueous buffer, BRB pH 7, medium pH 7.18, prep. 2.7 mg/mL, room temperature, Day 3 pH 7.21, read-out: Conc Day 3): < 0.1 µg/mL | solubility thermodynamic at 3 days ([3]; pH 7.9, aqueous buffer, BRB pH 8, medium pH 7.90, prep. 2.8 mg/mL, room temperature, Day 3 pH 8.01, read-out: Conc Day 3): < 0.1 µg/mL | PXRD of Residuals Day 3 ([3]; pH 1 (0.1N HCl)): In solution; no excess solid | solubility at 3 days ([3]; simulated gastric fluid, pH 1 (0.1N HCl), medium pH 1.08, prep. 11 mg/mL, room temperature, Day 3 pH 1.44, read-out: Conc Day 3): > 10700 µg/mL | immunomodulatory activity [4]: showed immunomodulatory activity supporting the inhibition of IL-12/IL-23 synthesis | efficacy over placebo [5]: did not demonstrate efficacy over placebo | tolerability [5]: well tolerated

1-hydroxy-2-naphthoate
pKa of Acid (first value) [6, 11]: 2.7 | pKa of Acid (second value) [6, 11]: 13.5

Cc1cccc(/C=N/Nc2cc(N3CCOCC3)nc(OCCc3ccccn3)n2)c1.O=P(O)(O)O [Phosphate]
pKa of Acid (first value) [6, 11]: 2.0 | pKa of Acid (second value) [6, 11]: 7.1 | pKa of Acid (third value) [6, 11]: 12.3 | Residual Solids By XRPD [2]: Matches Input | Residual Solids By XRPD ([2]; listed as phosphate): match the XRPD pattern of the initial input material

Cc1cccc(/C=N/Nc2cc(N3CCOCC3)nc(OCCc3ccccn3)n2)c1.Cc1cccc(/C=N/Nc2cc(N3CCOCC3)nc(OCCc3ccccn3)n2)c1.O=C(O)/C=C/C(=O)O [Hemi-fumarate]
pKa of Acid (first value) [6, 11]: 3.0 | pKa of Acid (second value) [6, 11]: 4.4 | residues by powder diffraction (PXRD) [7]: crystalline, and matched input salts | intrinsic dissolution rate relative to D/L-Lactate and HCl salts ([8]; 0.01N HCl): less that 10-times lower | Residual Solids By XRPD [2]: Matches Input | Residual Solids By XRPD ([2]; listed as hemi-fumarate): match the XRPD pattern of the initial input material

Cc1cccc(/C=N/Nc2cc(N3CCOCC3)nc(OCCc3ccccn3)n2)c1.O=C(O)CC(=O)O [Malonate]
pKa of Acid (first value) [6, 11]: 2.8 | pKa of Acid (second value) [6, 11]: 5.7 | Residual Solids By XRPD [2]: Matches Input | Residual Solids By XRPD ([2]; listed as malonate): match the XRPD pattern of the initial input material

Glycolate
pKa of Acid (first value) [6, 11]: 3.3 | Intrinsic Dissolution Rate free base equivalent [8]: 0.2670 | Residual Solids By XRPD [2]: consistent with the input material and the poorly crystalline phase

Cc1cccc(C=NNc2cc(N3CCOCC3)nc(OCCc3ccccn3)n2)c1.Cl.Cl [dichloride]
solubility in water [9]: 213000 µg/mL

L-Tartrate
pKa of Acid (first value) [6, 11]: 3.0 | pKa of Acid (second value) [6, 11]: 4.4 | Intrinsic Dissolution Rate free base equivalent [8]: 0.3399 | Residual Solids By XRPD [2]: match the XRPD pattern of the initial input material; also recorded: Matches Input

Cc1cccc(/C=N/Nc2cc(N3CCOCC3)nc(OCCc3ccccn3)n2)c1 [HCl]
pKa of acid ([6]; strong acids required for disalt formation, per the '436 patent): −4.5 | solubility in FaSSIF relative to other forms [10]: higher solubility at 1 hour compared to the other salts and the freebase | Residual Solids By XRPD [2]: match the XRPD pattern of the initial input material; also recorded: Matches Input

Maleate
pKa of Acid (first value) [6, 11]: 1.9 | pKa of Acid (second value) [6, 11]: 6.2 | residues by powder diffraction (PXRD) [7]: crystalline, and matched input salts | Intrinsic Dissolution Rate free base equivalent [8]: 0.0871 | Residual Solids By XRPD [2]: Matches Input | Residual Solids By XRPD ([2]; listed as maleate): match the XRPD pattern of the initial input material

Cc1cccc(/C=N/Nc2cc(N3CCOCC3)nc(OCCc3ccccn3)n2)c1.O=C(O)CCC(=O)O [Succinate]
pKa of Acid (first value) [6, 11]: 4.2 | pKa of Acid (second value) [6, 11]: 5.6
